# Results as given in ChEMBL document CHEMBL1201862, “PubChem BioAssay data set” (2004).
# Activity calls are given as the source filed them.
# Key:
# [1] = biological target: Voltage-dependent T-type calcium channel subunit alpha-1H (Homo sapiens, UniProt O95180); type: functional;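 also: channel activity triggered by adding a high calcium stimulation buffer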
# Bcl-2-related protein A1 = biological target: T1, Bcl-2-related protein A1 (Mus musculus, UniProt Q07440); type: functional;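 also: confirmatory dose–response counterscreen on Bfl-1, used to check hits from a UBC13 polyubiquitin inhibitor campaign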
# T1 sequence (Q07440 whole entry): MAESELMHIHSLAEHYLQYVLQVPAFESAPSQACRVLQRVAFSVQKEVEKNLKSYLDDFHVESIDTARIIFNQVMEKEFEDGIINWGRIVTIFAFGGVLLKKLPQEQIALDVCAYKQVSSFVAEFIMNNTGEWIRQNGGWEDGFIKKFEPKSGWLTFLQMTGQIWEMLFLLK
# [2] = biological target: T2, Ubiquitin-conjugating enzyme E2 N (Homo sapiens, UniProt P61088); type: functional
# T2 sequence (P61088 whole entry): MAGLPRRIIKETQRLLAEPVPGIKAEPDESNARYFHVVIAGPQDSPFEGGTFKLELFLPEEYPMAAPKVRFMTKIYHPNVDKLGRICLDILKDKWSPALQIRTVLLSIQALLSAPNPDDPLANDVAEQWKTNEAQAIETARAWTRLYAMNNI
# [3] = biological target: T2, Ubiquitin-conjugating enzyme E2 N; type: functional; remark: listed apart in the source
# [4] = inhibitors of SNCA 5'UTR-driven reporter translation, confirmation, H4 neuroglioma cells, luminescence (AID 1988); type: functional, cell-based
# [5] = A Cell Based Secondary Assay To Explore Cytotoxicity of Compounds that Sensitize Mycobacterium Tuberculosis to Beta-Lactam Antibiotics.; type: functional
# [6] = Luminescence Cell-Based Dose Response HTS to Identify Inhibitors of 5'UTR Stem-Loop Driven Prion Protein mRNA Translation in H4 Neuroglioblastoma Cells. [Related pubchem assays: 1827 (Project Summary), 1813 (Primary HTS)]; type: functional
# [7] = inhibitors of firefly luciferase expression or activity, dose response, H4 neuroglioma cells, luminescence (AID 1990); type: functional, cell-based
# [8] = Luminescence Cell-Based Dose Retest to Confirm Inhibitors of Cancer Stem Cells. [Related pubchem assays (depositor defined):AID2717, AID2721]; type: functional; conditions: Homo sapiens
# Protein RecA = biological target: T3, Protein RecA (Mycobacterium tuberculosis, UniProt P9WHJ3); test: Fluorescence Cell-Free Homogeneous Dose Retest to Identify Inhibitors of RecA-Intein Splicing Activity. [Related pubchem assays (depositor defined):AID2097, AID2223, AID489010, AID492950]; type: functional
# T3 sequence (P9WHJ3 whole entry): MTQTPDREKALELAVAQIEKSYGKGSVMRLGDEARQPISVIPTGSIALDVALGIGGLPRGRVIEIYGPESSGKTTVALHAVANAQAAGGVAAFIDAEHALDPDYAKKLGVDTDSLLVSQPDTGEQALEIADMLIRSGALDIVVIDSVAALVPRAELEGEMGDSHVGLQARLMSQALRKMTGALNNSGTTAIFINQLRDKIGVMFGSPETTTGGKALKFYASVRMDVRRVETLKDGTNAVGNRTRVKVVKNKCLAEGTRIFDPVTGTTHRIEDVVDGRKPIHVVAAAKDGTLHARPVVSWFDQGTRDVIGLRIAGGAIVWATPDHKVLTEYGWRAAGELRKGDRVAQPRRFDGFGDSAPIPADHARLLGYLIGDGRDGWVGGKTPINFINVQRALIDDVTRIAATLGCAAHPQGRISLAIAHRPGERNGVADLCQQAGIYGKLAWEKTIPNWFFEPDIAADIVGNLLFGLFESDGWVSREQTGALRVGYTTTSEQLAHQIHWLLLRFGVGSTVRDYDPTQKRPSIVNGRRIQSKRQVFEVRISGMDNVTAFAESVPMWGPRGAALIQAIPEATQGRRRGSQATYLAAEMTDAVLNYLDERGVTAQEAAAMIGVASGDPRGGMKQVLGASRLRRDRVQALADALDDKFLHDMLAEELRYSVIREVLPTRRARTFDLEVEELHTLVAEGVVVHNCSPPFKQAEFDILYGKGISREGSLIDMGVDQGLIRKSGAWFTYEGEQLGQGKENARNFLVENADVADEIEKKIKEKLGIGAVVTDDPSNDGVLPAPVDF
# [9] = biological target: Cyclin-dependent kinase 5/CDK5 activator 1 (Homo sapiens, UniProt Q00535); test: CDK5/p35 kinase inhibitors, dose response, biochemical, cherry-picked samples, set 2 (AID 504545)
# Cyclin-dependent kinase 5/CDK5 activator 1, sequence (Q00535 whole entry): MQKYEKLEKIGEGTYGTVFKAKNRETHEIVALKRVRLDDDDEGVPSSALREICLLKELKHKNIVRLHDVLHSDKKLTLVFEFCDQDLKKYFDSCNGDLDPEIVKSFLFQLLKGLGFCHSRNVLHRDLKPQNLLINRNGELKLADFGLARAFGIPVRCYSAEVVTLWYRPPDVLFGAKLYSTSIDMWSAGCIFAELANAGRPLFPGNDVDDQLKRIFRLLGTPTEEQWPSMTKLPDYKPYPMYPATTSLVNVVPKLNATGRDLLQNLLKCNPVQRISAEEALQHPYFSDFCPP
# Cyclin-dependent kinase 5/CDK5 activator 1, sequence (Q15078 whole entry, further chain): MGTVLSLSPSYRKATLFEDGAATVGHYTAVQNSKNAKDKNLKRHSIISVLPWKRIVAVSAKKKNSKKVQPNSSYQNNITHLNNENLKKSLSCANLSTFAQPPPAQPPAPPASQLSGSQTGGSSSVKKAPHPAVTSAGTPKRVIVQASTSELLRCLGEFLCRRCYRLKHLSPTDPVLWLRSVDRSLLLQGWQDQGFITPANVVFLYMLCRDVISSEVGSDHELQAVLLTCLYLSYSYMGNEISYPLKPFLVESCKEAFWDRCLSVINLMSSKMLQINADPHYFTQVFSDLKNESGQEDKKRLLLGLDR
# Estrogen receptor beta = Estrogen receptor beta (Homo sapiens, UniProt Q92731);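 also: recombinant ER-beta bound to coactivator SRC1 peptide in presence of estradiol agonist; inhibitors block coactivator peptide binding and lower the FRET signal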
# Estrogen receptor beta, sequence (Q92731 whole entry): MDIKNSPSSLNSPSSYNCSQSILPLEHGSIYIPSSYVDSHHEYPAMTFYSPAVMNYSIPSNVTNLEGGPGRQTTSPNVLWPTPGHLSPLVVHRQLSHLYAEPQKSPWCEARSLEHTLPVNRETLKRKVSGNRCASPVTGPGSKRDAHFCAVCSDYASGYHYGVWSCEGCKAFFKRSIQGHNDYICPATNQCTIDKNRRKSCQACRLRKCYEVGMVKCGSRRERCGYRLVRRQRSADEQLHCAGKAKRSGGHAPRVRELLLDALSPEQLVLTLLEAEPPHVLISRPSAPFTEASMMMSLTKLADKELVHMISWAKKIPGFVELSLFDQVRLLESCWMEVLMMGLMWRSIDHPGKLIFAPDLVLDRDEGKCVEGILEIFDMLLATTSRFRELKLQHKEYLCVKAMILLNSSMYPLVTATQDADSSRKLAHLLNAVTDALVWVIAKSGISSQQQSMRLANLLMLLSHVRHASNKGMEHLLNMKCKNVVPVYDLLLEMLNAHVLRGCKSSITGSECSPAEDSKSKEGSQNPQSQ
# Cytochrome P450 1A2 = biological target: T4, Cytochrome P450 1A2 (Homo sapiens, UniProt P05177);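 also: PubChem cytochrome P450 panel assay, CYP1A2 panel member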
# T4 sequence (P05177 whole entry): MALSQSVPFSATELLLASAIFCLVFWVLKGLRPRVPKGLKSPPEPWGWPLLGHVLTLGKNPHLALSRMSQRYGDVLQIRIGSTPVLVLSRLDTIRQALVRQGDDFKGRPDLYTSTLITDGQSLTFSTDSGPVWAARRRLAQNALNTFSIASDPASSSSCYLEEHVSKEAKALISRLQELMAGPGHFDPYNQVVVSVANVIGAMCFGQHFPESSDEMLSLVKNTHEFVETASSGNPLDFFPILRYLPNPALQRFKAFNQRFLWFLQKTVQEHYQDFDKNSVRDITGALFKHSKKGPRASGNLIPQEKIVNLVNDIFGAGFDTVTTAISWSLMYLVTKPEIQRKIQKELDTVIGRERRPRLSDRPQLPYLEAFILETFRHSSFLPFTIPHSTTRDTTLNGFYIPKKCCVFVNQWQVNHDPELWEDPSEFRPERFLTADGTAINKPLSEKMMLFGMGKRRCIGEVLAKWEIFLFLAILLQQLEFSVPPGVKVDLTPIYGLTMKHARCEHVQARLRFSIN
# Streptococcus = test: Group A Streptococcus viability loss, dose response, counter-screen for streptokinase expression inhibitor project, luminescence, BacTiterGlo (AID 1915); type: functional, organism-based;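 also: potency for reduction of bacterial viability or growth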
# Streptokinase A = biological target: T5, Streptokinase A (Streptococcus pyogenes serotype M1, UniProt P10520); test: S. pyogenes streptokinase expression inhibitors, potency, dose response, plasminogen activation absorbance, OD405 (AID 1914); type: functional, Streptococcus pyogenes M1 GAS;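 also: secreted streptokinase activity via plasminogen activation per viability signal from cell pellet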
# T5 sequence (P10520 whole entry): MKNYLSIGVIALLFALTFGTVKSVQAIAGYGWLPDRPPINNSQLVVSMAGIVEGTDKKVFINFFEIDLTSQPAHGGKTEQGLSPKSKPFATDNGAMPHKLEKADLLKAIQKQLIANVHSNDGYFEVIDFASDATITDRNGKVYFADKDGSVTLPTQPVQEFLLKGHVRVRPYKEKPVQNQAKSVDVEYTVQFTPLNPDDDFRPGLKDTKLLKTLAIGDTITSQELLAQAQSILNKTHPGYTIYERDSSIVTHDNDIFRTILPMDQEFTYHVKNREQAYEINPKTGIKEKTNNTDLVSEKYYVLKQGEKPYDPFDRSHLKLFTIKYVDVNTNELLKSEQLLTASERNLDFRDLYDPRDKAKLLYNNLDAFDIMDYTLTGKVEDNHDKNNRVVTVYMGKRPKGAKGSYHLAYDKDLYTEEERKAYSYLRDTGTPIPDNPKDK
# [10] = system: Streptococcus sp. 'group A'; test: growth inhibition of control SK(-) GAS strain, dose response, counter-screen for streptokinase expression inhibitor project, luminescence, kanamycin, BacTiterGlo, confirmation (AID 1900); type: functional, organism-based
# Voltage-dependent T-type calcium channel subunit alpha-1H, sequence (O95180 whole entry): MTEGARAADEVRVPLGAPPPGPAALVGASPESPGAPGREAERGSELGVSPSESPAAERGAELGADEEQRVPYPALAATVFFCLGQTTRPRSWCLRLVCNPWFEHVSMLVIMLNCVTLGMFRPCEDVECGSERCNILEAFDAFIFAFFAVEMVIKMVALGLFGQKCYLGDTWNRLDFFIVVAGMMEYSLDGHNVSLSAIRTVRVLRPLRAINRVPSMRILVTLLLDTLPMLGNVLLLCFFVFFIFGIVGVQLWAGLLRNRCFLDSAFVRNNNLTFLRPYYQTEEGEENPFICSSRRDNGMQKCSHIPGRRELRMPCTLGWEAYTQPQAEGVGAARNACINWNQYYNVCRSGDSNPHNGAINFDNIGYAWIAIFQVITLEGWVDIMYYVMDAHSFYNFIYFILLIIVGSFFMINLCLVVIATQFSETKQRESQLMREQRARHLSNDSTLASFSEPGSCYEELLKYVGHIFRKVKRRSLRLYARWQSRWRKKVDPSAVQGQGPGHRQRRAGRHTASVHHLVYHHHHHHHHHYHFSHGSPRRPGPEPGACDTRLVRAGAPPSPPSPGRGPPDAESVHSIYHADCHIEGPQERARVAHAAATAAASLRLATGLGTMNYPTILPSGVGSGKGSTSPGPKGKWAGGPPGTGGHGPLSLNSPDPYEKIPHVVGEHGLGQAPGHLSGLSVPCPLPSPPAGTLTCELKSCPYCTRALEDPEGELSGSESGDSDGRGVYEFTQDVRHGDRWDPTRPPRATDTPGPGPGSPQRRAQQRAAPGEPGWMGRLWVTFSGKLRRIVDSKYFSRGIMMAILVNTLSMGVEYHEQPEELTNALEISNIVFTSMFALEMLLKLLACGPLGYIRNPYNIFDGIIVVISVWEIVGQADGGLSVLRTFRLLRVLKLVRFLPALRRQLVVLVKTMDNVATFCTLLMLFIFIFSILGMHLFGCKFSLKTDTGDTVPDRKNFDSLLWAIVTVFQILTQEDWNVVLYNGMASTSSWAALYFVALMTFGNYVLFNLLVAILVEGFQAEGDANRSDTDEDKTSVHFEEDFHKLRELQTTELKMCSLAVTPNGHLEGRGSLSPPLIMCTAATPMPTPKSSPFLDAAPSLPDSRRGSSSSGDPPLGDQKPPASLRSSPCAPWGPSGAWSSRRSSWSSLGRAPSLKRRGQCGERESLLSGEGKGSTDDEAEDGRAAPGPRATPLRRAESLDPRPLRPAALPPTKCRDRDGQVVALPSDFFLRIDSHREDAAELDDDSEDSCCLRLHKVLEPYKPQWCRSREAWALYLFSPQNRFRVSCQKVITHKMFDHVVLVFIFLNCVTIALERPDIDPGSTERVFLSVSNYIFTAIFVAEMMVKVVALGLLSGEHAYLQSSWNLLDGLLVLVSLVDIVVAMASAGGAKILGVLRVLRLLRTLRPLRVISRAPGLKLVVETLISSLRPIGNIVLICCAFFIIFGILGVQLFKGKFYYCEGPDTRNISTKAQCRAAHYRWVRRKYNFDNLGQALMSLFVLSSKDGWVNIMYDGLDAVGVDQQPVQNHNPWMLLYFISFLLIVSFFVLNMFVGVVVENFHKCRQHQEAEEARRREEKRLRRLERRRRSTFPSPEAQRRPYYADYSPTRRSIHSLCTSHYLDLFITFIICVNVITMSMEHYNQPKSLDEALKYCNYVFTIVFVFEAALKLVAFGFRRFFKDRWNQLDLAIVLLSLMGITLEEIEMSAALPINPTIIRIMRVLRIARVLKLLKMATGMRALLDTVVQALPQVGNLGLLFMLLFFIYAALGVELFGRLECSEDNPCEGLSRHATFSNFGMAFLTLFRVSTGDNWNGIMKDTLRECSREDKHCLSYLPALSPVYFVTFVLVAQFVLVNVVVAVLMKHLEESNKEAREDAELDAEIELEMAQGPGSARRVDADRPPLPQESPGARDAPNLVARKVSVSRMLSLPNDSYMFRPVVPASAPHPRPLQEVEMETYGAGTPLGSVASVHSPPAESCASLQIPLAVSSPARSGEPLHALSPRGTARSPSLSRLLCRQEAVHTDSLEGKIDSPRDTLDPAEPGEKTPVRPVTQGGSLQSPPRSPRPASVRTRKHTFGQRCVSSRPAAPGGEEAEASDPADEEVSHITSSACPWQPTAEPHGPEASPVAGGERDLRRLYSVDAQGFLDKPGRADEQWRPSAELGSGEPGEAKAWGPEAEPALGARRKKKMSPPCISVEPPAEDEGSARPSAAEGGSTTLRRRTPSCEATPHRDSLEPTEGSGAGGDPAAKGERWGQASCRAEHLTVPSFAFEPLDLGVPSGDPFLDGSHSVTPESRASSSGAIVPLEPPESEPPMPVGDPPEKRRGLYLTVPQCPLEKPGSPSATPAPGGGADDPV
structure (smiles),measurement,setting,value
CCCC(=O)N1CCN(c2ccc([N+](=O)[O-])c(NC(C)c3ccccc3)c2)CC1 (stereo not given),EC50,[1],5.51 µM (active)
COc1ccc(/C=N/NC(=O)Cc2csc(Nc3cccc(C(F)(F)F)c3)n2)c(OC)c1,IC50,Bcl-2-related protein A1,> 20 µM (inactive)
same,IC50,[2],14 µM (active)
same,IC50,[3],10.1 µM (active)
COc1cccc(-c2nc(CS(=O)(=O)CC(=O)N3CCc4ccccc4C3)c(C)o2)c1,EC50,[1],10.8 µM (active)
CC(C)(C)Nc1nc(Nc2ccc([N+](=O)[O-])cc2)nc(NC(C)(C)C)n1,EC50,[4],> 120 µM (not active)
same,CC50,[5],> 40 µM (active)
same,EC50,[6],> 120 µM (not active)
same,EC50,[7],> 120 µM (not active)
COc1cc(OC)cc(-c2cc3ccc(OC)cc3cn2)c1,CC50,[5],21.8 µM (active)
same,AC50,[8],3.32 µM (active)
Cn1cccc1Cc1nnc(SCC(=O)Nc2ccc(Cl)cc2)n1-c1ccc(F)cc1,EC50,[1],1.32 µM (active)
Cc1n[nH]c(O)c1C(c1ccccc1[N+](=O)[O-])C(C#N)C#N (stereo not given),EC50,Protein RecA,3.93 µM (active)
same,AC50,[9],61.1 µM (active)
Cc1ccccc1NC(=O)Cn1cnc2c1c(=O)n(C)c(=O)n2C,IC50,Estrogen receptor beta,> 50 µM (not active)
same,AC50,Cytochrome P450 1A2,15.8 µM (inconclusive)
COc1cc2c(C(=O)N3CCN(c4ccccc4C)CC3)c(C)oc2cc1Br,CC50,[5],> 40 µM (active)
same,EC50,Streptococcus,36 µM (active)
same,EC50,Streptokinase A,79.8 µM (active)
same,EC50,[10],4.4 µM (active)
